Results published in PubChem BioAssay AID330 (DTP/NCI, 2004).
Toxic doses and inconclusive results are not listed. The calls were made as follows: active = survival T/C of 150% or more; inactive = T/C below 125% in these data.

Tested on: P388 leukemia ip, CD2F1 mice, survival T/C
Test: NCI In Vivo Anticancer Drug Screen. Data for tumor model P388 Leukemia (intraperitoneal) in CD2F1 (CDF1) mice
Settings: endpoint: median survival time, higher = longer survival
Method in brief: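 Mice carrying the transplanted tumor received test compound or vehicle. Survival was recorded in each group, and the value is the treated-group measurement divided by that of the vehicle-treated control group.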

[1] = dose: 100.0 mg/kg/injection, schedule: Q01DX001 (ip), vehicle: Klucel (hydroxypropylcellulose) (HPC)
[2] = dose: 50.0 mg/kg/injection, schedule: Q01DX009 (ip), vehicle: saline with Tween-80
[3] = dose: 100.0 mg/kg/injection, schedule: Q01DX009 (ip), vehicle: saline with Tween-80
[4] = dose: 200.0 mg/kg/injection, schedule: Q01DX009 (ip), vehicle: saline with Tween-80
[5] = dose: 50.0 mg/kg/injection, schedule: Q01DX005 (ip), vehicle: saline
[6] = dose: 100.0 mg/kg/injection, schedule: Q01DX005 (ip), vehicle: saline
[7] = dose: 25.0 mg/kg/injection, schedule: Q01DX009 (ip), vehicle: Klucel (hydroxypropylcellulose) (HPC)
[8] = dose: 50.0 mg/kg/injection, schedule: Q01DX009 (ip), vehicle: Klucel (hydroxypropylcellulose) (HPC)
[9] = dose: 100.0 mg/kg/injection, schedule: Q01DX009 (ip), vehicle: Klucel (hydroxypropylcellulose) (HPC)
[10] = dose: 100.0 mg/kg/injection, schedule: Q01DX001 (ip), vehicle: saline
[11] = dose: 100.0 mg/kg/injection, schedule: Q01DX009 (ip), vehicle: saline
[12] = dose: 200.0 mg/kg/injection, schedule: Q01DX009 (ip), vehicle: saline

Measured: T/C

CN(C)CCNC(=O)c1nn(-c2ccccc2)c2c1CSc1ccccc1-2
inactive: dose: 100.0 mg/kg/injection, schedule: Q04DX002 (ip), vehicle: saline with Tween-80 100 % of control | dose: 200.0 mg/kg/injection, schedule: Q04DX002 (ip), vehicle: saline with Tween-80 105 % of control | dose: 400.0 mg/kg/injection, schedule: Q04DX002 (ip), vehicle: saline with Tween-80 103 % of control

Cc1nc2c(ncn2C2OC(CO)C(O)C2O)c(=O)[nH]1 (stereo unspecified)
inactive: dose: 50.0 mg/kg/injection, schedule: Q04DX003 (ip), vehicle: saline with Tween-80 96 % of control | dose: 100.0 mg/kg/injection, schedule: Q04DX003 (ip), vehicle: saline with Tween-80 101 % of control | dose: 200.0 mg/kg/injection, schedule: Q04DX003 (ip), vehicle: saline with Tween-80 109 % of control | dose: 400.0 mg/kg/injection, schedule: Q04DX003 (ip), vehicle: saline with Tween-80 111 % of control

O=C1Cc2ccccc2C2CC12 (stereo unspecified)
inactive: [1] 98 % of control | dose: 200.0 mg/kg/injection, schedule: Q01DX001 (ip), vehicle: Klucel (hydroxypropylcellulose) (HPC) 113 % of control | dose: 400.0 mg/kg/injection, schedule: Q01DX001 (ip), vehicle: Klucel (hydroxypropylcellulose) (HPC) 111 % of control

Cn1cc(CCc2cc[n+](CCC[N+](C)(C)C)cc2)c2ccccc21
inactive: dose: 1.25 mg/kg/injection, schedule: Q01DX009 (ip), vehicle: saline 101 % of control | dose: 2.5 mg/kg/injection, schedule: Q01DX009 (ip), vehicle: saline 105 % of control | dose: 5.0 mg/kg/injection, schedule: Q01DX009 (ip), vehicle: saline 109 % of control | dose: 10.0 mg/kg/injection, schedule: Q01DX009 (ip), vehicle: saline 108 % of control

Clc1ccc(C2C3CCN2CC3)cc1 (stereo unspecified)
inactive: dose: 0.78 mg/kg/injection, schedule: Q01DX009 (ip), vehicle: saline 100 % of control | dose: 1.56 mg/kg/injection, schedule: Q01DX009 (ip), vehicle: saline 96 % of control | dose: 3.12 mg/kg/injection, schedule: Q01DX009 (ip), vehicle: saline 94 % of control

N#C/C(=C/N)C(N)=O
inactive: [2] 104 % of control | [3] 103 % of control | [4] 103 % of control

CN(C)c1ccc(/C=C/c2cc[n+](C)c(/C=C/c3ccc(N(C)C)cc3)c2)cc1
inactive: dose: 0.78 mg/kg/injection, schedule: Q01DX005 (ip), vehicle: saline 115 % of control | dose: 1.56 mg/kg/injection, schedule: Q01DX005 (ip), vehicle: saline 119 % of control

Cc1ccc2c(c1)C1(C)C=C(CN3CCN(C)CC3)C(=O)CC1O2 (stereo unspecified)
inactive: [5] 108 % of control | [6] 103 % of control

CC(C)NC(=O)OCc1c(COC(=O)NC(C)C)c(S(=O)(=O)c2ccccc2)n2c1CCC2
inactive: dose: 25.0 mg/kg/injection, schedule: Q01DX005 (ip), vehicle: saline with Tween-80 89 % of control | dose: 50.0 mg/kg/injection, schedule: Q01DX005 (ip), vehicle: saline with Tween-80 86 % of control | dose: 100.0 mg/kg/injection, schedule: Q01DX005 (ip), vehicle: saline with Tween-80 90 % of control | dose: 200.0 mg/kg/injection, schedule: Q01DX005 (ip), vehicle: saline with Tween-80 93 % of control

CC1(O)CC23CC1CCC2(C)C12CCCC(C)(C(=O)O1)C2CC3O (stereo unspecified)
inactive: dose: 12.5 mg/kg/injection, schedule: Q01DX009 (ip), vehicle: Klucel (hydroxypropylcellulose) (HPC) 99 % of control | [7] 100 % of control | [8] 108 % of control | [9] 103 % of control | dose: 200.0 mg/kg/injection, schedule: Q01DX009 (ip), vehicle: Klucel (hydroxypropylcellulose) (HPC) 100 % of control

Cn1c(N)nc2c(nc(OCc3ccccc3)n2C2OC(CO)C(O)C2O)c1=O (stereo unspecified)
inactive: dose: 60.0 mg/kg/injection, schedule: Q01DX005 (ip), vehicle: saline with Tween-80 100 % of control | dose: 120.0 mg/kg/injection, schedule: Q01DX005 (ip), vehicle: saline with Tween-80 94 % of control | dose: 240.0 mg/kg/injection, schedule: Q01DX005 (ip), vehicle: saline with Tween-80 103 % of control

Cc1ccc(NC(=S)SCc2ccc([N+](=O)[O-])cc2)cc1C
inactive: dose: 50.0 mg/kg/injection, schedule: Q01DX009 (ip), vehicle: suspension in saline 89 % of control | dose: 100.0 mg/kg/injection, schedule: Q01DX009 (ip), vehicle: suspension in saline 107 % of control | dose: 200.0 mg/kg/injection, schedule: Q01DX009 (ip), vehicle: suspension in saline 101 % of control

Cc1ccc(S(=O)(=O)N/N=C/C=C\C(=O)O)cc1
inactive: dose: 12.5 mg/kg/injection, schedule: Q01DX009 (ip), vehicle: distilled water + Tween-80 101 % of control | dose: 25.0 mg/kg/injection, schedule: Q01DX009 (ip), vehicle: distilled water + Tween-80 99 % of control | dose: 50.0 mg/kg/injection, schedule: Q01DX009 (ip), vehicle: distilled water + Tween-80 107 % of control | dose: 100.0 mg/kg/injection, schedule: Q01DX009 (ip), vehicle: distilled water + Tween-80 100 % of control | dose: 200.0 mg/kg/injection, schedule: Q01DX009 (ip), vehicle: distilled water + Tween-80 94 % of control | dose: 400.0 mg/kg/injection, schedule: Q01DX009 (ip), vehicle: distilled water + Tween-80 110 % of control

COCc1cccc2ccnc(COC)c12
inactive: [10] 100 % of control | dose: 200.0 mg/kg/injection, schedule: Q01DX001 (ip), vehicle: saline 102 % of control | dose: 400.0 mg/kg/injection, schedule: Q01DX001 (ip), vehicle: saline 103 % of control

N#Cc1cc2ccccc2nc1SN
inactive: [5] 100 % of control | [6] 99 % of control | dose: 200.0 mg/kg/injection, schedule: Q01DX005 (ip), vehicle: saline 98 % of control

Oc1cc2c(cc1O)CN1CCc3cc(O)c(O)cc3C1C2 (stereo unspecified)
inactive: [11] 114 % of control | [12] 109 % of control | dose: 400.0 mg/kg/injection, schedule: Q01DX009 (ip), vehicle: saline 101 % of control

COCC12CCC(OC)C34C5CC6(O)C(OC)C=C(C5C6OC(=O)c5ccccc5)C(C(OC)C13)C4N(C)C2 (stereo unspecified)
inactive: [7] 100 % of control | [8] 95 % of control | [9] 100 % of control

CN(C)N=Nc1cccc(C(F)(F)F)c1
inactive: dose: 25.0 mg/kg/injection, schedule: Q01DX008 (ip), vehicle: saline with Tween-80 104 % of control | dose: 50.0 mg/kg/injection, schedule: Q01DX007 (ip), vehicle: saline 120 % of control | dose: 50.0 mg/kg/injection, schedule: Q01DX008 (ip), vehicle: saline with Tween-80 101 % of control | dose: 100.0 mg/kg/injection, schedule: Q01DX008 (ip), vehicle: saline with Tween-80 101 % of control

OC(c1ccccc1)(c1ccc(Br)cc1)C1CC1 (stereo unspecified)
inactive: dose: 25.0 mg/kg/injection, schedule: Q01DX001 (ip), vehicle: Klucel (hydroxypropylcellulose) (HPC) 100 % of control | dose: 50.0 mg/kg/injection, schedule: Q01DX001 (ip), vehicle: Klucel (hydroxypropylcellulose) (HPC) 96 % of control | [1] 97 % of control

O=C(c1ccccc1)N1OC2C=CC1CC2 (stereo unspecified)
inactive: [2] 104 % of control | [3] 98 % of control | [4] 109 % of control

Nc1nc2c(nnn2C2OC(COP(=O)(O)OP(=O)(O)O)C(O)C2O)c(=O)[nH]1 (stereo unspecified)
inactive: dose: 12.5 mg/kg/injection, schedule: Q01DX001 (ip), vehicle: saline 110 % of control | dose: 25.0 mg/kg/injection, schedule: Q01DX001 (ip), vehicle: saline 110 % of control | dose: 50.0 mg/kg/injection, schedule: Q01DX001 (ip), vehicle: saline 116 % of control | [10] 117 % of control

CCOC(=O)c1c[nH]c2cc3ccccc3cc2c1=O
inactive: dose: 50.0 mg/kg/injection, schedule: Q01DX009 (ip), vehicle: saline 91 % of control | [11] 107 % of control | [12] 117 % of control

CN(C)S(=O)(=O)c1ccccc1N=C=S
inactive: [2] 117 % of control | [3] 117 % of control

CCCCP(=O)(CCCC)CCCC.CCCCP(=O)(CCCC)CCCC.CCCCP(=O)(CCCC)CCCC.CCCCP(=O)(CCCC)CCCC.[Mn+2].[O-][Cl+3]([O-])([O-])O
inactive: dose: 50.0 mg/kg/injection, schedule: Q01DX009 (ip), vehicle: saline + Tween-80 + alcohol 101 % of control | [2] 104 % of control | dose: 100.0 mg/kg/injection, schedule: Q01DX009 (ip), vehicle: saline + Tween-80 + alcohol 116 % of control | [3] 119 % of control | dose: 200.0 mg/kg/injection, schedule: Q01DX009 (ip), vehicle: saline + Tween-80 + alcohol 122 % of control
